Data taken from PubChem BioAssay AID2488 (The Scripps Research Institute Molecular Screening Center, 2010).
The source made the active and inactive calls.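 Rule for the calls: active = IC50 at or below 10 µM; inactive = IC50 above 10 µM.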

These compounds were tested against HCV core protein (core106) dimerization, Hepatitis C virus (assay: HCV core dimerization inhibitor potency, late-stage follow-up, biochemical, TR-FRET, dose response, powder samples (AID 2488)). Conditions: GST/Flag-core106 dimerization, TR-FRET HTRF.
For CC1=C(/C=C/C(C)=C/C=C/C(C)=C/C=C/C=C(C)/C=C/C=C(C)/C=C/C2=C(C)CCCC2(C)C)C(C)(C)CCC1, the IC50 was > 49.8 µM (inactive).
Compound Cc1ccc(Cc2c(C)nc3nc(SCC(=O)NCCCN4CCCCCC4)nn3c2C)cc1 has an IC50 of 3.67 µM.
With COc1ccc(NC(=O)CN(C)C(=O)c2cc3c(s2)CCC3)cc1 the IC50 was “inactive”.
For COCCN(C(=O)COC(=O)c1cc2c(s1)CCC2)c1c(N)n(Cc2ccccc2)c(=O)[nH]c1=O, the IC50 was “inactive”.
With O=C(/C=C/c1ccc(Br)o1)OCc1nc2ccsc2c(=O)[nH]1 the IC50 was > 49.8 µM (inactive).
CCN(CC(=O)Nc1c(F)cccc1F)C(=O)/C=C/c1ccc2ccccc2n1 was tested, and the IC50 was “inactive”.
In the case of Cc1ccccc1N1C(=O)/C(=C/c2ccco2)C(=O)NC1=S, the IC50 is reported as “inactive”.
CCCCCC#CCC#CCC#CCC#CCCCC(=O)O was tested, and the IC50 was > 49.8 µM (inactive).
